Reference: US20140275280A1 (COYOTE PHARMACEUTICALS, INC., priority 2013, published 2014)

How the values were obtained:
[1] = Pharmacological activity of GGA isomers (data of the examples, test not specified); settings: at low concentrations
mild to moderate IBD = experiment: Treatment of inflammatory bowel disease (IBD) in subjects; format: in vivo; settings: daily administration, 12 weeks
Description: (§1) A pharmaceutical composition comprising GGA or a GGA derivative as described herein is prepared. A subject is diagnosed with mild to moderate IBD. […] Subjects are treated for 12 weeks. Subjects keep daily diaries and record the number and nature of bowel movements. The effect of the treatments is assessed by grading clinical symptoms of fecal blood, mucus, and urgency. In addition, sigmoidoscopic assessment and biopsies are performed, and efficacy of treatment assessed, based on grading of sigmoidoscopic and degree of histological inflammation in rectal biopsy specimens. Safety is assessed based on spontaneous side effect reporting.

90% hepatectomy = experiment: Acute liver damage after 90% hepatectomy; format: in vivo, Male Wister rats
Description: Male Wister rats weighing 230-260 g are obtained. After an overnight fast, GGA or a GGA derivative (as an emulsion with 5% gum arabic and 0.004% α-tocophenol) or vehicle (5% gum arabic emulsion with 0.004% α-tocophenol) is intragastrically administrated into rats 4 h prior to the operation. After rats are anesthetized, 90% hepatectomy is performed. Briefly, the left, median, right-upper, and right-lower lobes are removed, leaving the caudate lobes, which represent 10-11% of the original liver mass. Liver specimens and blood samples are collected after laparotomy and exsanguinations under deep anesthesia immediately before (0) and 4,8, 12, and 24 h after the operation. Small pieces of liver tissue are immediately stored in an RNeasy stabilization kit (Qiagen, Hilden, Germany). Sera are immediately separated, and the activities of alanine (ALT) and aspartate (AST) aminotransferases are measured.

DSS-induced colitis = experiment: Dextran sulfate sodium (DSS)-induced colitis; format: in vivo, BALB/c mice
Description: BALB/c mice are given 3% DSS solution orally for 7 days to induce colitis. The disease activity of colitis is assessed clinically every day, and histology in the colon is evaluated at 7 days post-DSS. The levels of myeloperoxidase (MPO) activity, tumor necrosis factor (TNF)-alpha and interferon (IFN)-gamma in the colon tissues are also examined. In addition, expression of HSPs 25, 40, 70 and 90 in the colon tissue is determined by Western blot analysis or ELISA. GGA or a GGA derivative is administered orally to mice when treatment of DSS is initiated.

[2] = tested on: human hepatoma (Bel-7402) cells; experiment: Acetaminophen-induced hepatotoxicity cytotoxicity assay with S9 mixture; format: cell-based; settings: cytotoxic concentration of acetaminophen, vs control conditions
Description: In order to test the protective activity of GGA and GGA derivatives from acetaminophen-induced hepatotoxicity, a cytotoxicity assay is employed using human hepatoma (Bel-7402) cells in the presence of S9 mixture. Cell viability and mitochondrial permeability transition (MPT) is assessed in the presence or absence of GGA or GGA derivatives in combination with a cytotoxic concentration of acetaminophen.

[3] = tested on: heterotopically transplanted hearts; experiment: Heterotopically transplanted hearts; format: in vivo, rats; settings: 24 h after transplantation
Description: A total of 20 donor rats are randomly divided into 2 groups. One of those receives an oral dose of GGA or a GGA derivative and one is a control group. […] The levels of HSP70 expression in donor hearts and the variation of myocardial enzymes in receptor blood or donor hearts are measured 24 h after transplantation. The donated hearts are also examined under a microscope for pathological changes. HSP70 expression is increase in the GGA-treated group.

IEC-18 cells = experiment: Protection of intestinal epithelial cells from NH2Cl-induced injury; format: cell-based, Rat; settings: pretreatment
Description: Cell viability is assessed, and endogenous HSP70 levels are determined by enzyme-linked immunosorbent assay in IEC-18 cells.

[4] = tested on: mild to moderate IBD following gastrectomy; experiment: Treatment of IBD in gastrectomized patients; format: in vivo; settings: gastrectomized subjects, daily administration, 12 weeks
Description: as §1, with “IBD following gastrectomy.” for “IBD.”

HL-1 cardiomyocytes = experiment: In vitro ischemia/reperfusion cardiac disease model; format: cell-based, murine; settings: HL-1 cells, nutrient-deficiency medium with 2.5 mM hydrogen peroxide
Description: Activity is assessed via apoptosis signaling, cell structure and energy-metabolism. The HL-1 cardiomyocytes (murine atrial tumor cell line) are maintained in monolayer culture with Claycomb-medium (Sigma, Germany), Heaving reached confluence and contractile activity, cells are maintained as subcultures. Induction of ischemia was carried out on vital cardiomyocytes at culture day four. The subconfluent, contractile HL-1 cardiomyocytes are placed in nutrient-deficiency medium containing 2.5 mM hydrogen peroxide solution in order to enhance the oxidative stress in HL-1 cells. In control cultures the medium exchange is carried out with standard supplemented Claycomb-medium. 8 h after ischemia induction samples are harvested and revitalization is induced in parallel by replacing nutrient-deficiency medium with fresh Claycomb-medium and incubating cells for another 16 hours. Cell proliferation analysis is done by flow cytometry. Apoptosis analysis is performed by terminal desoxynucleotidyl transferase-mediated dUTP nick end-labeling. Total number of cells are determined using 7-AAD nucleus staining. Additionally formaldehyde-fixed cells on glass coverslips are prepared for immuncytochemical staining.

[5] = tested on: myocardial ischemia and reperfusion; experiment: Myocardial ischemia and reperfusion injury; format: in vivo, male rats; settings: once orally 24 h before 30 min ischemia, 4 h of reperfusion
Description: Lactate dehydrogenase (LDH), creatine kinase (CK), malondialdehyde (MDA), superoxide dismutase (SOD) activity and infarct size are measured.

HSP70 [6] = experiment: Time course of HSP70 expression by ELISA in select tissues after oral CNS-102; format: in vivo, Sprague-Dawley rats; settings: 12 mg/kg p.o
Description: CNS-102 at 12 mg/kg or PBS was administered orally to Sprague-Dawley rats and the time course of HSP70 protein expression in tissues, was measured by ELISA. HSP70 protein expression was determined for lung, testicle, spleen, liver, kidney, blood plasma, skin, peripheral blood monocytes, heart, eye, muscle, intestine, and stomach at each of three time points (8 h, 17 h, 24 h).

HSP70 [7] = experiment: Time course of HSP70 expression by western blot in cortex and hippocampus after oral CNS-102; format: in vivo; parameters: HSP70 expression (western blot), treatment average: scale not given here
Description: The time course of protein expression, as measured by western blot for HSP70, was determined in triplicate for hippocampus, and cortex tissue samples taken from each of 5 animals per group at each of four time points (24, 48, 72, and 96 h) after treatment with either PBS or 12 mg/kg CNS-102, administered orally. The average expression for each treatment group is calculated at each time point for each tissue using PROC MIXED in SAS and are tabulated, along with the difference (delta) between treatment averages and a p-value comparing the difference to zero, below.

[8] = single oral administration 4 h prior to operation, vs vehicle

With CC(=O)CC/C=C(\C)CC/C=C(\C)CC/C=C(\C)CCC=C(C)C (single isomer, unassigned) [trans-isomer of GGA, 5E, 9E, 13E geranylgeranyl acetone] the “pharmacological activity and dose-dependent relationship” value [1] was “pharmacologically active and shows a dose-dependent relationship”.
With CC(=O)CC/C=C(\C)CC/C=C(\C)CC/C=C(\C)CCC=C(C)C [GGA, Geranylgeranyl acetone] the “efficacy in inflammatory bowel disease (treating the condition and maintaining remission)” value (mild to moderate IBD) was “demonstrate efficacy”, the “chaperone induction in liver (gene expression and immunoblot): HSP70, HSP27, BIP” value (90% hepatectomy; after 90% hepatectomy) was “induce an endoplasmic reticulum chaperone, BIP” and the “release of aminotransferases (ALT, AST)” value (90% hepatectomy; [8]) was “significantly suppresses”. For the same compound, the survival (90% hepatectomy; [8]) was “improves survival”, the “expression of HSP70 in the colon” value (DSS-induced colitis; mice given DSS) was “enhances” and the “clinical severity of colitis” value (DSS-induced colitis; oral, 3% DSS for 7 days) was “significantly reduces”. For the same compound, the “level of IFN-gamma in the colon” value (DSS-induced colitis; oral, 3% DSS for 7 days) was “suppresses”, the “level of MPO activity in the colon” value (DSS-induced colitis; oral, 3% DSS for 7 days) was “suppresses” and the “level of TNF-alpha in the colon” value (DSS-induced colitis; oral, 3% DSS for 7 days) was “suppresses”. For the same compound, the cell viability [2] was “increased cell viability”, the “Lactate dehydrogenase concentration in receptor blood” value ([3]; vs control group) was “decreased” and the atriphosphate concentration ([3]; vs control group) was “higher”. The “creatine kinase muscle band concentration in receptor blood” value ([3]; vs control group) was “decreased”, the malondialdehyde concentration ([3]; vs control group) was “lower” and the “HSP70 expression in donor hearts” value ([3]; oral dose to donor 24 h before transplantation) was “increase”. The “HSP70 levels (ELISA)” value (IEC-18 cells) was “rapidly elevates HSP70 levels”, the “protection against NH2Cl-induced injury (cell viability)” value (IEC-18 cells) was “protects against NH2Cl-induced injury” and the “efficacy in inflammatory bowel disease (treating the condition and maintaining remission)” value [4] was “demonstrate efficacy”. The “ischemia induced apoptosis (TUNEL)” value (HL-1 cardiomyocytes) was “reduce ischemia induced apoptosis”, the “ischemia-induced reduction of cell proliferation” value (HL-1 cardiomyocytes) was “rescue ischemia-induced reduction of cell proliferation” and the “decrease in SOD levels” value [5] was “significantly inhibits”. For the same compound, the “increase in MDA levels” value [5] was “significantly inhibits”, the infarct size [5] was “significantly reduces” and the “level of CK” value [5] was “significantly reduces”. For the same compound, the “level of LDH” value [5] was “significantly reduces”.
With CC(=O)CC/C=C(\C)CC/C=C(\C)CC/C=C(\C)CCC=C(C)C [CNS-102] the “HSP70 Fold Induction vs. Vehicle Control” value (HSP70 [6]; Intestine, 8 h) was 1.63 fold, the “HSP70 Fold Induction vs. Vehicle Control” value (HSP70 [6]; Intestine, 17 h) was 1.26 fold and the “HSP70 Fold Induction vs. Vehicle Control” value (HSP70 [6]; Intestine, 24 h) was 0.64 fold. For the same compound, the “HSP70 Fold Induction vs. Vehicle Control” value (HSP70 [6]; PBMC, 8 h) was 1.67 fold, the “HSP70 Fold Induction vs. Vehicle Control” value (HSP70 [6]; PBMC, 17 h) was 1.05 fold and the “HSP70 Fold Induction vs. Vehicle Control” value (HSP70 [6]; PBMC, 24 h) was 1.09 fold. For the same compound, the “HSP70 Fold Induction vs. Vehicle Control” value (HSP70 [6]; Stomach, 8 h) was 1.07 fold, the “HSP70 Fold Induction vs. Vehicle Control” value (HSP70 [6]; Stomach, 17 h) was 1.30 fold and the “HSP70 Fold Induction vs. Vehicle Control” value (HSP70 [6]; Stomach, 24 h) was 0.96 fold. The “HSP70 Fold Induction vs. Vehicle Control” value (HSP70 [6]; heart, 17 h) was 1.89 fold, the “HSP70 Fold Induction vs. Vehicle Control” value (HSP70 [6]; heart, 24 h) was 0.60 fold and the “HSP70 Fold Induction vs. Vehicle Control” value (HSP70 [6]; kidney, 8 h) was 1.11 fold. For the same compound, the “HSP70 Fold Induction vs. Vehicle Control” value (HSP70 [6]; kidney, 17 h) was 1.08 fold, the “HSP70 Fold Induction vs. Vehicle Control” value (HSP70 [6]; kidney, 24 h) was 0.92 fold and the “HSP70 Fold Induction vs. Vehicle Control” value (HSP70 [6]; liver, 8 h) was 1.24 fold. The “HSP70 Fold Induction vs. Vehicle Control” value (HSP70 [6]; liver, 17 h) was 1.00 fold, the “HSP70 Fold Induction vs. Vehicle Control” value (HSP70 [6]; liver, 24 h) was 0.89 fold and the “HSP70 Fold Induction vs. Vehicle Control” value (HSP70 [6]; plasma, 8 h) was 0.88 fold. The “HSP70 Fold Induction vs. Vehicle Control” value (HSP70 [6]; plasma, 17 h) was 1.09 fold, the “HSP70 Fold Induction vs. Vehicle Control” value (HSP70 [6]; plasma, 24 h) was 1.05 fold and the “HSP70 Fold Induction vs. Vehicle Control” value (HSP70 [6]; spleen, 8 h) was 0.64 fold. The “HSP70 Fold Induction vs. Vehicle Control” value (HSP70 [6]; spleen, 17 h) was 1.09 fold, the “HSP70 Fold Induction vs. Vehicle Control” value (HSP70 [6]; spleen, 24 h) was 1.04 fold and the “HSP70 Fold Induction vs. Vehicle Control” value (HSP70 [6]; testicle, 8 h) was 1.10 fold. For the same compound, the “HSP70 Fold Induction vs. Vehicle Control” value (HSP70 [6]; testicle, 17 h) was 1.03 fold, the “HSP70 Fold Induction vs. Vehicle Control” value (HSP70 [6]; testicle, 24 h) was 0.94 fold and the “HSP70 expression (western blot), treatment average” value (“HSP70 expression (western blot)” below) (HSP70 [7]; cortex, 24 hours after 12 mg/kg oral) was −0.016. The “HSP70 expression (western blot)” value (HSP70 [7]; cortex, 48 hours after 12 mg/kg oral) was −0.45, the “HSP70 expression, delta CNS-102 vs PBS” value (HSP70 [7]; cortex, 48 hours, 12 mg/kg oral, p-value 0.15) was 0.11 and the “HSP70 expression (western blot)” value (HSP70 [7]; cortex, 72 hours after 12 mg/kg oral) was 0.14. The “HSP70 expression, delta CNS-102 vs PBS” value (HSP70 [7]; cortex, 72 hours, 12 mg/kg oral, p-value 0.13) was 0.13, the “HSP70 expression (western blot)” value (HSP70 [7]; cortex, 96 hours after 12 mg/kg oral) was 0.04 and the “HSP70 expression, delta CNS-102 vs PBS” value (HSP70 [7]; cortex, 96 hours, 12 mg/kg oral, p-value 0.09) was 0.19. For the same compound, the “levels of HSP70 in the cortex after 24 h” value (HSP70 [7]; cortex, time points after 24 h, 12 mg/kg oral) was “No significant levels”, the “time of peak HSP70 expression in the hippocampus” value (HSP70 [7]; hippocampus, 12 mg/kg oral) was over 48 h and the “HSP70 expression (western blot)” value (HSP70 [7]; hippocampus, 24 hours after 12 mg/kg oral) was −0.159. For the same compound, the “HSP70 expression, delta CNS-102 vs PBS” value (HSP70 [7]; hippocampus, 24 hours, 12 mg/kg oral, p-value 0.16) was −0.088, the “HSP70 expression (western blot)” value (HSP70 [7]; hippocampus, 48 hours after 12 mg/kg oral) was 0.02 and the “HSP70 expression, delta CNS-102 vs PBS” value (HSP70 [7]; hippocampus, 48 hours, 12 mg/kg oral, p-value 0.14) was 0.2. For the same compound, the “HSP70 expression (western blot)” value (HSP70 [7]; hippocampus, 72 hours after 12 mg/kg oral) was −0.06, the “HSP70 expression (western blot)” value (HSP70 [7]; hippocampus, 96 hours after 12 mg/kg oral) was −0.32 and the “HSP70 expression, delta CNS-102 vs PBS” value (HSP70 [7]; hippocampus, 96 hours, 12 mg/kg oral, p-value 0.07) was 0.17.
With CC(=O)CC/C=C(/C)CC/C=C(\C)CC/C=C(\C)CCC=C(C)C (single isomer, unassigned) [cis-isomer of GGA, 5Z, 9E, 13E geranylgeranyl acetone] the “pharmacological activity and dose-dependent relationship” value [1] was “at best of minimal activity”.
